Tests used:
[1] = test system: Trichostrongylus columbriformis; assay: In vivo efficacy against T. colubriformis in infected gerbils; settings: gerbils infected with T. colubriformis; single oral dose of 50 mg/kg by gavage; worm counts four days post-treatment; % mortality as compared to negative control
Procedure: In Vivo Evaluation of the Efficacy of Test Compounds Against T. colubriformis
In this evaluation, gerbils are infected with Trichostrongylus columbriformis infective larvae at a concentration of approximately 800 L3/mL. Larvae for gerbil infections are cultured from feces from sheep previously infected with T. colubriformis. One week post infection, test compounds are administered by gavage as a single oral dose of 50 mg/kg of body weight. For each group of 3 gerbils, 10 mg of test compound are dissolved in 2 mL of PEG 400:DMSO (1:2 v/v) and each animal is administered the test solution at a rate of 0.1 mL/10 g of body weight. […] All animals are observed daily for morbidity and mortality. Four days post-treatment, all animals are weighed and necropsied. Worm counts are conducted with the use of stereoscopes and counters.

[2] = test system: C. elegans; assay: Efficacy against nematodes (C. elegans motility rating); parameters: key: 0: no effect; 7: reduced movement in 24 h; 8: dead in 24 h; 9: dead in 4 h; settings: dose 100 ppm, observations at 4 h and 24 h postimmersion
In short: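 Mixed-stage C. elegans (~50 per well, L1 to adult) in M9 buffer exposed to test compound at 100 ppm, 150 ppm or 200 μM final. Motility of larvae and adults scored under dissecting microscope at 4 h and 24 h.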

[3] = test system: larvae of blowfly, Lucilia sericata; assay: whole plant or invertebrate; settings: dose rate of 20 ppm, Lucilia sericata larvae on treated filter paper with bovine serum; for % Mortality 24 h: assessed at 24 h; for % Mortality 48 h: assessed at 48 h
Procedure: Comparative Evaluation of the Efficacy of a 3-Aryl-4-hydroxyfuranone Compound Against Blowfly Larvae
In this evaluation, filter paper discs are treated with an acetone solution of test compound and allowed to dry. Bovine serum and newly emerged larvae of blowfly, Lucilia sericata, are added to the treated filter paper. Mortality is assessed at 24 h and 48 h. When more than one evaluation is performed, the data are averaged.

SMILES | Mortality [1] [%] | Rating [2] | % Mortality 24 h [3] [%] | % Mortality 48 h [3] [%]
COc1cc(/C=C2\OC(=O)C(c3cccc(Cl)c3)=C2O)ccc1-c1ccccc1Cl | 0.00 |  |  | 
COC1=C(c2ccc(Cl)cc2)C(=O)OC1=Cc1ccc(C#N)cc1 (mixture of isomers) [R=CH3; R1=4-Cl—C6H4**; R2=4-CN—C6H4] | 0.00 | 0 |  | 
O=C1OC(=Cc2ccc(F)cc2)C(O)=C1c1cccc(C(F)(F)F)c1 (mixture of isomers) [R=H; R1=3-CF3—C6H4**; R2=4-F—C6H4] | 36.40 | 9 |  | 
N#Cc1cccc(C2=C(O)C(=Cc3ccc(-c4ccc(Cl)cc4)cc3)OC2=O)c1 (mixture of isomers) | 0.00 | 9 |  | 
O=C1OC(=Cc2ccccn2)C(O)=C1c1ccc(OC(F)(F)F)cc1 (mixture of isomers) [R=H; R1=4-OCF3—C6H4**; R2=pyridine-2-yl] | 0.00 | 0 |  | 
N#Cc1ccc(-c2ccc(C=C3OC(=O)C(c4ccc(F)cc4)=C3O)cc2)cc1 (mixture of isomers) [listing 1 of 2 here] | 31.80 | 9 |  | 
N#Cc1ccc(-c2ccc(C=C3OC(=O)C(c4ccc(C(F)(F)F)cc4)=C3O)cc2)cc1 (mixture of isomers) | 91.50 | 9 |  | 
O=C1OC(=Cc2cccnc2)C(O)=C1c1ccc(OC(F)(F)F)cc1 (mixture of isomers) [R=H; R1=4-OCF3—C6H4**; R2=pyridine-3-yl] | 0.00 | 0 |  | 
Cc1cc(/C=C2\OC(=O)C(c3cccc(Cl)c3)=C2O)ccc1-c1ccccc1Cl | 16.90 |  |  | 
CCc1ccc(C2=C(O)C(=Cc3cc(C(F)(F)F)ccc3Cl)OC2=O)cc1 | 39.00 |  |  | 
O=C1O/C(=C\c2cccc(Cl)c2)C(O)=C1c1ccc(Cl)cc1 [R=H; R1=4-Cl—C6H4; R2=3-CI-C6H4] | 25.40 |  |  | 
Cc1cc(/C=C2\OC(=O)C(c3cccc(Cl)c3)=C2O)ccc1-c1ccccc1C(F)(F)F | 11.20 |  |  | 
COc1ccccc1-c1ccc(C=C2OC(=O)C(c3cccc(Cl)c3)=C2O)cc1C | 0.00 |  |  | 
O=C1O/C(=C\c2ccc(Cl)cc2)C(O)=C1c1ccc(-c2ccccc2)c(F)c1 [R=H; R1=4-(3-F-biphenyl); R2=4-CI-C6H4] | 22.00 |  |  | 
O=C1O/C(=C\c2cc(C(F)(F)F)ccc2F)C(O)=C1c1cccc(-c2ccccc2)c1 [R=H; R1=3-biphenyl; R2=2-F-5-CF3—C6H4] | 38.40 |  |  | 
CCCOc1ccc(C=C2OC(=O)C(c3ccc(OC(F)(F)F)cc3)=C2O)cc1 (mixture of isomers) | 10.40 |  |  | 
O=C1O/C(=C\c2cc(C(F)(F)F)ccc2Cl)C(O)=C1c1ccc(-c2ccccc2)cc1 [R=H; R1=4-biphenyl; R2=2-Cl—5-CF3—C6H4] | 38.40 |  |  | 
N#Cc1ccc(C2=C(O)C(=Cc3ccc(C(F)(F)F)cc3)OC2=O)cc1 (mixture of isomers) [R=H, R1=4-CN—C6H4**, R2=4-CF3—C6H4] |  |  | 100 | 100
COC1=C(c2ccc(Cl)cc2)C(=O)OC1=Cc1ccc(C#N)cc1 (mixture of isomers) [R=CH3, R1=4-Cl—C6H4**, R2=4-CN—C6H4] |  |  | 0 | 0
N#Cc1ccc(-c2ccc(C=C3OC(=O)C(c4cccc(Cl)c4)=C3O)cc2)cc1 (mixture of isomers) |  |  | 0 | 0
O=C1OC(=Cc2ccc(C(F)(F)F)cc2)C(O)=C1c1cccc(Cl)c1 (mixture of isomers) [R=H, R1=3-Cl—C6H4**, R2=4-CF3—C6H4] |  |  | 60 | 75
O=C1OC(=Cc2ccc(C(F)(F)F)cc2)C(O)=C1c1ccc(Cl)cc1 (mixture of isomers) [R=H, R1=4-Cl—C6H4**, R2=4-CF3—C6H4] |  |  | 100 | 100
O=C1O/C(=C\c2ccccc2)C(O)=C1c1ccccc1C(F)(F)F [R=H; R1=2-CF3—C6H4; R2=C6H5] | 34.60 |  |  | 
N#Cc1ccc(C=C2OC(=O)C(c3cccc(C(F)(F)F)c3)=C2O)cc1 (mixture of isomers) [R=H, R1=3-CF3—C6H4**, R2=4-CN—C6H4] |  |  | 20 | 20
N#Cc1ccc(C2=C(O)C(=Cc3cccc(C(F)(F)F)c3)OC2=O)cc1 (mixture of isomers) [R=H, R1=4-CN—C6H4**, R2=3-CF3—C6H4] |  |  | 0 | 90

SMILES | Mortality [1] [%] | Rating [2] | % Mortality 24 h [3] [%] | % Mortality 48 h [3] [%]
Cc1ccc(C2=C(O)/C(=C/c3cccc(C(F)(F)F)c3Cl)OC2=O)cc1C | 36.50 |  |  | 
O=C1OC(=Cc2cnccc2-c2cccc(Cl)c2)C(O)=C1c1ccc(OC(F)(F)F)cc1 (mixture of isomers) | 66.80 |  |  | 
N#Cc1ccc(C2=C(O)C(=Cc3ccc(-c4ccc(Cl)cc4)cc3)OC2=O)cc1 (mixture of isomers) |  |  | 0 | 100
COc1cc(C=C2OC(=O)C(c3cc(Cl)cc(Cl)c3)=C2O)ccc1-c1cccc(C(F)(F)F)c1 |  |  | 0 | 0
O=C1OC(=Cc2cnccc2-c2ccc(OC(F)(F)F)cc2)C(O)=C1c1ccc(OC(F)(F)F)cc1 (mixture of isomers) | 82.60 |  |  | 
N#Cc1ccc(C=C2OC(=O)C(c3ccc(C#N)cc3)=C2O)cc1 (mixture of isomers) [R=H, R1=4-CN—C6H4**, R2=4-CN—C6H4] |  |  | 40 | 100
O=C1OC(=Cc2ccc(C(F)(F)F)cc2)C(O)=C1c1ccc(-c2ccc(Cl)cc2)cc1 (mixture of isomers) |  |  | 0 | 0
O=C1O/C(=C\c2ccc(-c3ccccc3F)cc2)C(O)=C1c1ccccc1F [R=H; R1=2-F—C6H4; R2=4-(2′F-biphenyl)] | 12.40 |  |  | 
O=C1O/C(=C\c2cccc(C(F)(F)F)c2)C(O)=C1c1ccccc1 [R=H, R1=C6H5, R2=3-CF3—C6H4] |  |  | 0 | 0
O=C1OC(=Cc2ccc(Cl)cc2)C(O)=C1c1ccc(F)cc1 (mixture of isomers) [R=H, R1=4-F—C6H4**, R2=4-Cl—C6H4] |  |  | 0 | 0
O=C1O/C(=C\c2ccc(-c3ccccc3)c(F)c2)C(O)=C1c1cccc(C(F)(F)F)c1 [R=H, R1=3-CF3—C6H4, R2=4-(3-F-biphenyl)] |  |  | 0 | 0
O=C1OC(=Cc2ccc(F)cc2)C(O)=C1c1ccc(Cl)cc1 (mixture of isomers) [R=H, R1=4-Cl—C6H4**, R2=4-F—C6H4] |  |  | 0 | 0
O=C1OC(=Cc2cnccc2-c2ccc(Cl)cc2)C(O)=C1c1ccc(OC(F)(F)F)cc1 (mixture of isomers) | 84.60 |  |  | 
O=C1OC(=Cc2ccc(Cl)cc2)C(O)=C1c1cccc(Cl)c1 (mixture of isomers) [R=H, R1=3-Cl—C6H4**, R2=4-Cl—C6H4] |  |  | 0 | 0
O=C1O/C(=C\c2cc(F)cc(C(F)(F)F)c2)C(O)=C1c1cccc(-c2ccccc2)c1 [R=H; R1=3-biphenyl; R2=3-F-5-CF3—C6H4] | 0.00 |  |  | 
O=C1OC(=Cc2ccc(C(F)(F)F)cc2)C(O)=C1c1cccc(C(F)(F)F)c1 (mixture of isomers) [R=H, R1=3-CF3—C6H4**, R2=4-CF3—C6H4] |  |  | 100 | 100
O=C1OC(=Cc2ccc(C(F)(F)F)cc2)C(O)=C1c1ccc(F)cc1 (mixture of isomers) [R=H, R1=4-F—C6H4**, R2=4-CF3—C6H4] |  |  | 0 | 0
C=CCOC1=C(c2ccc(Cl)cc2)C(=O)OC1=Cc1ccc(C#N)cc1 (mixture of isomers) |  |  | 0 | 0
O=C1OC(=Cc2cnccc2-c2ccc(Cl)s2)C(O)=C1c1ccc(OC(F)(F)F)cc1 (mixture of isomers) | 88.50 |  |  | 
O=C1OC(=Cc2ccc(-c3ccc(C(F)(F)F)cc3)cc2)C(O)=C1c1ccc(Cl)cc1 (mixture of isomers) |  |  | 0 | 0
O=C1O/C(=C\c2cccc3ccccc23)C(O)=C1c1cccc(CO)c1 [R=H, R1=3-CH2OH—C6H4, R2=1-naphthyl] |  |  | 0 | 0
N#Cc1ccc(C=C2OC(=O)C(c3ccc(F)cc3)=C2O)cc1 (mixture of isomers) [R=H, R1=4-F—C6H4**, R2=4-CN—C6H4] |  |  | 0 | 0
N#Cc1ccc(-c2ccc(C=C3OC(=O)C(c4ccc(F)cc4)=C3O)cc2)cc1 (mixture of isomers) [listing 2 of 2 here] |  |  | 0 | 0
CCOC(=O)N1CCN(c2ccc(/C=C3\OC(=O)C(c4cc(Cl)cc(Cl)c4)=C3O)cc2F)CC1 |  |  | 0 | 0
CC(=O)Nc1cccc(C2=C(O)/C(=C/c3ccc(-c4cccc(NC(C)=O)c4)cc3)OC2=O)c1 |  |  | 0 | 0

Reference: patent US7495027B2, “3-aryl-4-hydroxyfuranone compounds and the human and animal health use thereof” (Wyeth, priority 2003, dated 2009)
